Laboratory results as given in patent publication US9234046B2, “Treatment of renal disease” (OPSONA Therapeutics Ltd, priority 2007, dated 2016).
Several values for one entry are separate records, joined by “and”; a condition that tells them apart may be missing. Equal values may be shown once.

System: mice
Assay: Warm renal ischemia/reperfusion repeat study Step 2, 25 minutes ischemia (Example 3)
Format: in vivo
Settings: for MDA level as an index of lipid peroxidation / uremia (urea) / MPO activity as an index of neutrophil accumulation / creatininemia (creatinine): individual data and Mean ± SEM, n=6
Protocol: Nine Experimental groups were used in Step 2: • 1) Sham-operated mice sacrificed 1 day after surgery, n=6, • 2) PBS-vehicle-treated mice 15 minutes before ischemia/1 day reperfusion, n=6, • 3) Isotype control antibody 10 mg/kg-treated mice 15 minutes before 25 minutes ischemia/1 day reperfusion, n=6 (The isotype control antibody is mouse IgG1 isotype control purchased from RnD systems (catalogue number MAB002), this isotype control antibody having binding specificity for Keyhole Limpet Hemocyanin (KLH) antigen), • 4) OPN301 anti-TLR2 monoclonal antibody 10 mg/kg-treated mice 15 minutes before 25 minutes ischemia/1 day reperfusion, n=6, • 5) Pargyline 6 mg/kg-treated mice 15 minutes before 25 minutes ischemia/1 day reperfusion, n=6, • 6) PBS-vehicle-treated mice 15 minutes before 25 min ischemia/5 day reperfusion, n=6, • 7) Isotype control antibody (RnD Systems catalogue Number MAB002) 10 mg/kg-treated mice 15 minutes before 25 minutes ischemia/5 day reperfusion, n=6, • 8) OPN301 anti-TLR2 monoclonal antibody 10 mg/kg-treated mice 15 minutes before 25 minutes ischemia/5 day reperfusion, n=6, • 9) Pargyline 6 mg/kg-treated mice 15 minutes before 25 minutes ischemia/5 day reperfusion, n=6, Experimental Warm Renal Ischemia/Reperfusion (Step 1 and 2)
Briefly, mice were anesthetized with 10 μl/g of a mix of 2.5 ml ketamine (Ketalar 50 mg/mL, Centravet; Lapalisse, France), 0.5 ml xylazine (Rompun 2.5%, Centravet; Lapalisse, France), and 7 mL NaCl 0.9% (Centravet; Lapalisse, France). During surgery, animals were set on a 35° C. hotplate.
After a 2 millimetre incision was made at the right jugular level, jugular vein was exposed for a 1 minute-intravenous injection (insulin syringe; VWR, Fontenay-sous-Bois, France) of 70 μl of the considered treatment then closed after haemostasis (5/0 Ethicrin thread, Ethicon; Auneau, France). In Step 1, no jugular injection was performed.
Three centimetre midline incisions were made to abdominal cutaneous followed by muscular incisions were performed; renal pedicles were exposed and clamped for 25 minutes using microaneurysm clamps (AREX; Palaiseau, France). At the time of clamp installation and removal, kidneys were inspected for blood flow arrest and restoration, respectively. During renal ischemia duration, the abdomen was wrapped up to avoid loss of heat and be kept in relative intra-abdominal pressure. At the time of abdomen closing in 2 layers (5/0 Ethicrin thread, Ethicon; Auneau, France), mice were supplemented with 1 mL sterile NaCl (sodium chloride) 0.9% to maintain fluid balance and volume status. Finally, all mice received an intramuscular injection of 10 mg/kg profenid 50 mg/mL (Centravet; Lapalisse, France) for analgesic purpose then allowed to recover from surgery for 12 hours at 32° C. in a ventilated stove. Food and water were given ad libitum. Sham-operated mice underwent the same procedure without clamping.
At the end of the protocol, mice were sacrificed by lethal injection of pentobarbital (100 μL/10 g, Ceva Sante Animale; Libourne, France) 1 and 5 days after surgery.
Experimental methodology such as urea, creatinine, MPO and MDA as described in Example 2.
The results were given as mean values±standard error of the mean (SEM). A one-way ANOVA was used for comparison of within-group difference followed by a Newman-Keuls test for comparison of all pairs of columns (GraphPad Prism, San Diego, USA). A p<0.05 was accepted for statistical significance.

Question: What does the source list for `C#CCN(C)Cc1ccccc1` [Pargyline]?
Answer: effect on renal function impairment induced by ischemic injury, in words (1 day after 25 minute ischemia): without effects; MDA level as an index of lipid peroxidation (Day 1 after 25 minute ischemia, PBS-vehicle 0.153 ± 0.014): 0.285 nmol/mg proteins and 0.163 nmol/mg proteins and 0.212 nmol/mg proteins and 0.242 nmol/mg proteins and 0.249 nmol/mg proteins and 0.202 nmol/mg proteins; MDA level as an index of lipid peroxidation (Day 1 after 25 minute ischemia, PBS-vehicle 0.153 ± 0.014, mean): 0.225 ± 0.017 nmol/mg proteins; uremia (urea) (Day 1 after 25 minute ischemia, PBS-vehicle 31.05 ± 5.70): 47.99 mmol/L and 48.92 mmol/L and 40.01 mmol/L and 27.83 mmol/L and 19.35 mmol/L and 18.22 mmol/L; uremia (urea) (Day 1 after 25 minute ischemia, PBS-vehicle 31.05 ± 5.70, listed as pargyline): 33.72 ± 5.64 mmol/L; uremia (urea) (Day 1 after 25 minute ischemia, PBS-vehicle 31.05 ± 5.70, mean): 33.72 ± 5.64 mmol/L; MPO activity as an index of neutrophil accumulation (Day 1 after 25 minute ischemia, PBS-vehicle 80.45 ± 8.66): 57.37±5.78 U MPO/mg protein and 47.9 U MPO/mg protein and 52.7 U MPO/mg protein and 68.7 U MPO/mg protein and 80.7 U MPO/mg protein and 48.8 U MPO/mg protein and 45.4 U MPO/mg protein; creatininemia (creatinine) (Day 1 after 25 minute ischemia, PBS-vehicle 99.97 ± 25.64): 185.9 µmol/L and 150.7 µmol/L and 134.1 µmol/L and 77.6 µmol/L and 53.3 µmol/L and 26.6 µmol/L; creatininemia (creatinine) (Day 1 after 25 minute ischemia, PBS-vehicle 99.97 ± 25.64, listed as pargyline): 104.7 ± 25.20 µmol/L; creatininemia (creatinine) (Day 1 after 25 minute ischemia, PBS-vehicle 99.97 ± 25.64, mean): 104.7 ± 25.20 µmol/L; MDA level as an index of lipid peroxidation (Day 5 after 25 minute ischemia, PBS-vehicle 0.188 ± 0.019): 0.290 nmol/mg proteins and 0.231 nmol/mg proteins and 0.218 nmol/mg proteins and 0.261 nmol/mg proteins and 0.234 nmol/mg proteins and 0.299 nmol/mg proteins; MDA level as an index of lipid peroxidation (Day 5 after 25 minute ischemia, PBS-vehicle 0.188 ± 0.019, mean): 0.255 ± 0.014 nmol/mg proteins; uremia (urea) (Day 5 after 25 minute ischemia, PBS-vehicle 8.78 ± 0.72): 7.63 mmol/L and 9.48 mmol/L and 7.37 mmol/L and 7.53 mmol/L and 8.78 mmol/L and 7.29 mmol/L; uremia (urea) (Day 5 after 25 minute ischemia, PBS-vehicle 8.78 ± 0.72, mean): 8.01 ± 0.37 mmol/L; creatininemia (creatinine) (Day 5 after 25 minute ischemia, PBS-vehicle 21.97 ± 1.84): 16 μmol/L and 27.2 μmol/L and 30.7 μmol/L and 19.2 μmol/L and 22.9 μmol/L (2×); creatininemia (creatinine) (Day 5 after 25 minute ischemia, PBS-vehicle 21.97 ± 1.84, mean): 23.15 ± 2.16 µmol/L; MPO activity as an index of neutrophil accumulation (Day 5 after 25 minute ischemia, PBS-vehicle 54.95 ± 0.62): 44.4 U MPO/mg protein and 49.2 U MPO/mg protein and 47.6 U MPO/mg protein and 42.2 U MPO/mg protein and 46.3 U MPO/mg protein and 49.6 U MPO/mg protein; MPO activity as an index of neutrophil accumulation (Day 5 after 25 minute ischemia, PBS-vehicle 54.95 ± 0.62, mean): 46.55 ± 1.17 U MPO/mg protein
